In one assay the test system is MV411. Nature of the assay: Caspase-3/7 activation assay. In kind it is cell-based. The note with it: Homo sapiens, MV4-11.
A further assay has as its system MOLP8. Briefly: Caspase-3/7 activation assay. The note with it: Homo sapiens, MOLP-8. Format: cell-based.
Assay [1] deals with T1, Mcl-1 (Homo sapiens, UniProt Q07820). Briefly: SPR direct binding assay. Also on record: 6His-tagged Mcl-1 protein (E171-G327) was immobilized using NTA capture-coupling.
Target sequence in this assay (Q07820 171-327): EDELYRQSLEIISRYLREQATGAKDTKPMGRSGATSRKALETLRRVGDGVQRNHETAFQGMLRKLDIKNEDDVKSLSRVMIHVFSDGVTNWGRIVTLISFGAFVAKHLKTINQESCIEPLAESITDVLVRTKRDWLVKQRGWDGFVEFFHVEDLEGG
Protocol: A Biacore T200 instrument (GE Healthcare) was used to monitor binding interactions using a direct binding assay format. 6His-tagged Mcl-1 protein (E171-G327) was immobilized using NTA capture-coupling at a flow rate of 10 μL min^-1 and using an immobilization running buffer containing 10 mM HEPES, 300 mM NaCl, 1 mM TCEP, and 0.05% Tween-20 at 25 °C. […] Approximately 300 response units of Mcl-1 protein (2 μg mL^-1 in immobilization running buffer) were immobilized using the ‘aim for’ function in the T200 Control Software (GE Healthcare). Remaining reactive esters were blocked using a 7 min injection of 1 M ethanolamine. Reference flow cells were prepared without protein. All binding measurements were performed in 10 mM Tris, pH 7.5, 300 mM NaCl, 1 mM TCEP, 1% DMSO, and 0.02% Tween-20 at 25 °C at a flow rate of 30 μL min^-1. Buffer was primed through the instrument overnight to stabilize the surface before subsequent assay steps. Prior to kinetic analysis, solvent calibration and double referencing subtractions were made to eliminate bulk refractive index changes, injection noise, and data drift. Affinity and binding kinetic parameters were determined by global fitting to a 1:1-binding model within the Biacore T200 Evaluation Software (GE Healthcare).
In assay [2] the target is T1, Mcl-1. Briefly: TR-FRET binding assay. Set-up: N-terminal GST-tagged-Mcl-1 protein from Mcl-1 (E171-G327); made in house; host or cells: E. coli. Here is the method: Percent inhibition was calculated based upon min (control compound) vs. max (DMSO) according to Eq. (2) and the IC50 was derived the smart fit curve (Genedata screener) of % inhibition vs. concentration. Ki values were calculated from Eq.
Target sequence in this assay (Q07820 171-327): as above

The next assay has as its system H23. Nature of the assay: Caspase-3/7 activation assay. The note with it: Homo sapiens, NCI-H23. In kind it is cell-based.
The target in assay [3] is T1, Mcl-1. Briefly: 2D protein-observed NMR titration (TROSY). In kind it is binding. Set-up: The 6His-TEV-Mcl-1(162–326) construct in a pET vector was expressed in BL21-GOLD cells; 6His-TEV (N, cleaved yes); made in house; host or cells: E. coli BL21-GOLD. The method, then: The 6His-TEV-Mcl-1(162–326) construct in a pET vector was expressed in BL21-GOLD cells and inducted by IPTG. ^15N-labeled GS-Mcl-1 was obtained by growing cells in Isogro-15N (Sigma-Aldrich) media (5 g L^-1) containing 50 µg mL^-1 Kanamycin and 12.5 µg mL^-1 Tetracycline. Expression was induced at OD^600 = 0.8 with 0.1 mM IPTG. Cells were then incubated overnight at 30 °C, harvested by centrifugation and lysed by sonication in buffer H (40 mM Hepes pH 8.0, 300 mM NaCl, 10 mM imidazole, 1 mM TCEP), supplemented with 0.3 mg mL^-1 lysozyme, 2.5 U mL^-1 benzonase, and EDTA-free protease inhibitors (Roche). The sample was centrifuged and supernatant collected and incubated with Ni-NTA resin (60 min at 4 °C). […]
NMR spectra were recorded at 298 K on a Bruker Avance 600 MHz spectrometer running Topspin 2.3 equipped with a 5 mm TCI Cryoprobe with Z-axis gradients. […] Binding was detected by ^1H–^15N 2D Transverse relaxation optimized spectroscopy (TROSY) spectra of the protein (F2 × F1) 2048 × 50 complex pairs (in Echo-Antiecho mode), 12019 × 1800 Hz sweep width, 85.2 ms × 27.8 ms acquisition times. Compound titration was recorded from fresh compound stock in DMSO-d6, and spectra were recorded at ligand concentrations of 0.04, 0.08, 0.16, 0.32, 0.63, and 1.24 mM. […]
Target sequence in this assay (Q07820 162-326): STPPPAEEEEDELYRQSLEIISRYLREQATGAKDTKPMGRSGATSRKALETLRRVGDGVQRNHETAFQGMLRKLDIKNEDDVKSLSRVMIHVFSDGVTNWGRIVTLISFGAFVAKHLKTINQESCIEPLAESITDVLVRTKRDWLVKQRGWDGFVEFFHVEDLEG

Assay [4] addresses T2, N-terminal GST-tagged Bcl-xL protein from Bcl-xL (1-209) (UniProt Q07817-1 1-209).
T2 construct: Bcl-xL, residues 1-209; also called GST-Bcl-xl; not shown: GST, N-terminal, kept
Nature of the assay: AlphaScreen or HTRF; TR-FRET: GST-tagged protein with Eu-labeled anti-GST antibody and HyLite Fluor 647-labeled peptide; 384-well plates, 24 °C, 120-180 min; how the peptide Kd was determined is not told. The note with it: both partners purified.

Assay [5] deals with T3, N-terminal GST-tagged-Mcl-1 protein from Mcl-1 (E171-G327) (human, UniProt Q07820 171-327).
T3 construct: Mcl-1, residues E171-G327; also called GST-Mcl-1; not shown: GST, N-terminal, kept
T3 sequence (Q07820 171-327): as the sequence (Q07820 171-327) above
Described as above. The note with it: both partners purified.

In assay [6] the target is T4, N-Terminal 6His-tagged Bfl-1 protein from Bfl-1 (M1-K151) (UniProt Q16548 1-151).
T4 construct: Bfl-1 (Bfl-1/A1), residues M1-K151; also called His-Bfl-1; source: E. coli, purified (Ni-NTA resin, size-exclusion chromatography); not shown: 6His, N-terminal, kept
T4 sequence (looked up): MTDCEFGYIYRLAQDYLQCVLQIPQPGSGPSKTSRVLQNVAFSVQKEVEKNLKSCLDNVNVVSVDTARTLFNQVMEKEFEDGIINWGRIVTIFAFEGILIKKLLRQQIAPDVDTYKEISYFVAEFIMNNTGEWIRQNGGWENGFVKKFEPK
Nature of the assay: AlphaScreen or HTRF; TR-FRET: His-tagged protein with Eu-labeled anti-His antibody and HyLite Fluor 647-labeled peptide; 384-well plates, 24 °C, 120-180 min; how the peptide Kd was determined is not told. The note with it: both partners purified.

Experimental findings from publication PMC6297231 (Nature Communications, 2018) are described below.

Read-outs that look alike come from different tables or passages of the source. Where no end group is shown, it is not given here. Where only a bound is given, the exact number is not on record here.

T2 sequence (Q07817 1-209): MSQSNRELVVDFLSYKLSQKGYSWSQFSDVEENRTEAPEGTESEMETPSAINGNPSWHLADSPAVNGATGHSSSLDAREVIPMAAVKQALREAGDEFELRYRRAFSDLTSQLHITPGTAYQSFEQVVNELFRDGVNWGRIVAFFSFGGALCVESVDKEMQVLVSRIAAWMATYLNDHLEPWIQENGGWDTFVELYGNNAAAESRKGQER
Protocol for H23: (§1) Cells were plated at 3000 cells/well in 384-well white plates in corresponding cell growth media. […] Caspase-3/7 activation was subsequently determined using a Caspase-Glo 3/7 Reagent (Promega) and viability was assayed using the CellTiter-Glo Reagent (Promega) as described in manufacturer’s instructions. Dose–response curves for caspase-3/7 activation and viability were plotted and analyzed (including EC50 and GI50 determination) using GraphPad Prism.
Protocol for MOLP8: as §1
Protocol for MV411: as §1

Regarding `Cc1nn(C)c(C)c1-c1cccc2c(CCCOc3cccc4ccccc34)c(C(=O)O)[nH]c12` [Compound 2, reference compound], the EC50 is over 31500 nM in the assay with MV411 (caspase activation, Mcl-1-dependent cell line, read-out: MV4-11, EC50); over 31600 nM in the assay with MV411 (mean of log transformed data, read-out: MV4-11 caspase pEC50 (converted)); over 31500 nM in the assay with MOLP8 (caspase activation, Mcl-1-dependent cell line, read-out: MOLP-8, EC50); over 31600 nM with MOLP8 (mean of log transformed data, read-out: MOLP-8 caspase pEC50 (converted)); over 31500 nM in the assay on H23 (caspase activation, Mcl-1-dependent cell line, read-out: NCI-H23, EC50); over 31600 nM in the assay with H23 (mean of log transformed data, read-out: NCI-H23 caspase pEC50 (converted)). Further, the Kd at Mcl-1 [1] (mean of log transformed data, read-out: MCL1 SPR pKd (converted)) is 646 nM; on Mcl-1 [1] (read-out: Mcl-1 SPR, Kd), 650 nM; on Mcl-1 [3] (fast exchange shifts, second weaker binding event, read-out: Kd, binding event 2), 141000 ± 8000 nM; on Mcl-1 [3] (slow exchange binding, read-out: Kd, binding event 1), under 5000 nM. For the same molecule, the IC50 is 288 nM at Mcl-1 [2] (mean of log transformed data, read-out: MCL1 FRET pIC50 (converted)) and 290 nM on Mcl-1 [2] (read-out: Mcl-1 FRET, IC50).

B1: HyLite Fluor 647-labeled BAK peptide C(Hilyte647 C2 Maleimide)-GGGQVGRQLAIIGDDINR (peptide)
peptide: C(HiLyte Fluor 647 C2 maleimide)GGGQVGRQLAIIGDDINR
notes: added N-terminal cysteine that carries the dye, and glycine spacer; Bak BH3 stretch; also called Hylite Bak peptide
Turning to B1, in assay [4], the Kd amounted to 10 nM.

B2: HyLite Fluor 647-labeled Bim peptide C (Hilyte647 C2 Maleimide)-WIAQELRRIGDEFN (peptide)
peptide: C(HiLyte Fluor 647 C2 maleimide)WIAQELRRIGDEFN
notes: added N-terminal cysteine that carries the dye; Bim BH3 stretch; also called Hylite Bim peptide
As for B2, the Kd amounted to 1.5 nM in [5] and 10 nM in assay [6].
